Where a name gives a salt, the structure may show the parent alone.
Experiments:
NK1 receptor = target: T1, NK1 receptor (Cavia porcellus, UniProt P30547); experiment: Antagonism of iodinated tachykinin binding to NK1 receptor (125I-Bolton Hunter Lys-3 labeled substance P); conditions: guinea pig lung membranes; mean of several experiments
T1 construct: evaluated in guinea pig lungs (Keystone Biologicals, Cleveland, OH); tissue Keystone Biologicals, Cleveland, OH; host or cells: guinea pig lung membranes
Experimental: (§1) One skilled in the art can determine the NK1 receptor and NK2 receptor affinity in vitro as follows. The NK1 receptor affinity of tachykinin antagonists is evaluated in guinea pig lungs (Keystone Biologicals, Cleveland, OH) and affinity for the NK2 receptor is evaluated in HSKR-1 cells (which are mouse 3T3 fibroblasts expressing the human jejunal NK2 receptor). Tissues or cells are homogenized with a Polytron in 15 volumes of 50 mM Tris-HCl buffer (pH 7.4, 4°C) and centrifuged. The pellet is resuspended in Tris-HCl buffer and is centrifuged; the pellet is washed twice by resuspension. The final pellet is resuspended at a concentration of 40 mg/ml for tissues and 20 mg/ml for cells in incubation buffer and remains at room temperature for at least 15 min prior to use. Receptor binding is initiated by addition of 250 ul membrane preparation in duplicate to 0.1 nM of the following radioligands: ^125I-Bolton Hunter Lys-3 labeled substance P and ^125iodohistidyl-1-neurokinin A; in a final volume of 500 ul of buffer containing 50 mM Tris-HCl (pH 7.4 at room temperature), 0.1% bovine serum albumin, 2 mM mangenese chloride, 40 ug/ml bacitracin, 4 µg/ml leupeptin and chymostatin, 10 µM thiorphan and various doses of the putative tachykinin antagonists. […] Filter bound radioactivity is quantitated in a gamma counter. Nonspecific binding is defined as binding in the presence of 1 µM substance P or neurokinin A. Specific binding is calculated by subtracting nonspecific binding from total binding. Competition of iodinated SP or NKA binding by test compounds or standards is expressed as a percentage of this maximum binding. […]
(§2) Tachykinin receptor binding (IC50 values) for representative compounds of the present invention are found in Table 1. Specifically, NK1 and NK2 receptor binding values were determined by the method of present Example A. These values represent the mean of several experiments. […]

[1] = target: T2, human jejunal NK2 receptor (Homo sapiens, UniProt P21452); experiment: Antagonism of iodinated tachykinin binding to NK2 receptor (125iodohistidyl-1-neurokinin A) in HSKR-1 cells; conditions: HSKR-1 cells (mouse 3T3 fibroblasts expressing the human jejunal NK2 receptor); mean of several experiments
T2 construct: expressed in transfected cells; host or cells: HSKR-1 cells (mouse 3T3 fibroblasts)
T2 sequence (P21452 1-398): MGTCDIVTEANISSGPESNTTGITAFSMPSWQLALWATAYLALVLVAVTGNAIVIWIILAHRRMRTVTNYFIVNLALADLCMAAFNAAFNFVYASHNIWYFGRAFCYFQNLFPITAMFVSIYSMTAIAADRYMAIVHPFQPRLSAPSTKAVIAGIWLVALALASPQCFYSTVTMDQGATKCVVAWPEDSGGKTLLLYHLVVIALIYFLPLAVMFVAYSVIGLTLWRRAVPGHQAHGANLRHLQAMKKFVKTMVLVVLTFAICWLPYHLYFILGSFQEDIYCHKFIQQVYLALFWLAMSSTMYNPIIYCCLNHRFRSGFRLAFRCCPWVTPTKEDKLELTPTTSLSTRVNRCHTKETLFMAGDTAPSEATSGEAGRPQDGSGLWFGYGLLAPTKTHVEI
Experimental: as §1, §2

[2] = Metabolic stability: disappearance of test compound in guinea pig liver S9 supernatant; format: in vitro ADME; conditions: initial concentration 10µM, 37°C
Experimental: (§3) One skilled in the art can determine the metabolic stability for the compounds of the present invention by determining the rate of disappearance of the test comopund in vitro in liver extracts. Metabolic stability is inversely related to the rate of metabolism which can be evaluated by determining the rate of disappearance of the test compounds during the initial linear phase of this assay.
(§4) This method is carried out using either S9 or S10 liver supernatant obtained from either guinea pig or human liver. Guinea pig liver S9 can be purchased from Vitro Technologies, Baltimore, Md and human liver S9 can be purchased from IIAM, Eaton Pa. Both guinea pig and human S10 supernatant can be prepared as follows: Combine weighed liver (fresh or stored at -80°C until use) and 1.15% aqueous potassium chloride solution (10-15 mL) and homogenize using a PCU Poltron from Kinematics of Switzerland or equivalent. Combine the homogenate with 1.15% aqueous potassium chloride solution, sufficient so that 3 mL of solution (total) is used per […] of liver, and mix. Store the above homogenate on ice at all times prior to use and at -80°C for long term storage.
(§5) Prepare a stock solution of each test compound in methanol, such that 0.1 mL of the stock solution when spiked into 16 mL of incubation mixture yields an initial concentration of 10µM of the test compound. Using this method the methanol content of the final incubation mixture will not exceed 1%.
(§6) Prepare the incubation mixture by combining in an incubation beaker S9 or S10 supernatant (4 mL); an aqueous solution containing 1.1 mM NADP, […] (4 units/2 mL)(0.32 mL); and an aqueous 0.1 M dipotassium monohydrogen phosphate solution (7.58 mL). Incubate the test compound by adding 0.1 mL of the stock solution of test compound to an incubation mixture, placed in a shaking water bath at 37°C.
(§7) To determine the rate of disappearance of test compounds in this assay, remove triplicate aliquots (0.5 mL) from the incubation beaker at 1, 3, 5, 10, 15, 30, and 60 minutes. Freeze all aliquots in a hexane/dry-ice slurry to instantly deactivate the enzymes. Store at -70°C until assayed. The concentration of test compound in each aliquot is determined by HPLC after preparation and as compared to a standard concentration of test compound, such preparations and determinations are well known and appreciated in the art. The rate of disappearance can be determined from the slope of the initial linear phase of this assay by graphing the change in concentration of test compound vs. time.
(§8) Calibration standards for Compound A were prepared as follows: dissolve 10 mg of Compound A (free base) in methanol (10 mL) to give a 1 mg/mL stock solution. Use acetonitrile to dilute 1 mL of stock solution to 10 mL to give a 100 µg/mL spiking standard and serially dilute the 100µg/mL solution with acetonitrile to give spiking standards having concentrations of 50, 25, 10, 5, 2.5, and 1.0 µg/mL. Calibration standards having concentrations of 10,000; 5,000; 2,500; 1,000; 500; 250; and 100 ng/mL are prepared in duplicated by adding 20 µL of each spiking standards to 0.2 mL of control S9 supernatant. Blanks and samples each receive 20µL of acetonitrile. Calibration standards and aliquots from that assay of compound A were prepared and evaluated as follows: charge a purple sulfonic acid solid phase extraction cartridge (Varian Inc., Harbor City, Ca.) with methanol (1 mL) and an aqueous 0.5% monochloroacetic acid solution (1 mL). Dilute the 0.2 mL of calibration standard or aliquot from the incubation with aqueous 5% acetonitrile (0.5 mL) and add to the charged cartridge. Pull the sample through the cartridge using vacuum, rinse with aqueous 0.5% monochloroacetic acid solution (1 mL), aqueous 50% acetonitrile solution (50 mM potassium hydroxide) (1 mL). Elute into HPLC vial using 60% methanol, 38% water, 1% acetic acid, 1% triethylamine (0.4 mL). […]

[3] = Metabolic stability: disappearance of test compound in human liver S9 supernatant; format: in vitro ADME; conditions: initial concentration 10µM, 37°C
Experimental: as §3, §4, §5, §6, §7, §8

T1 sequence (P30547 whole entry): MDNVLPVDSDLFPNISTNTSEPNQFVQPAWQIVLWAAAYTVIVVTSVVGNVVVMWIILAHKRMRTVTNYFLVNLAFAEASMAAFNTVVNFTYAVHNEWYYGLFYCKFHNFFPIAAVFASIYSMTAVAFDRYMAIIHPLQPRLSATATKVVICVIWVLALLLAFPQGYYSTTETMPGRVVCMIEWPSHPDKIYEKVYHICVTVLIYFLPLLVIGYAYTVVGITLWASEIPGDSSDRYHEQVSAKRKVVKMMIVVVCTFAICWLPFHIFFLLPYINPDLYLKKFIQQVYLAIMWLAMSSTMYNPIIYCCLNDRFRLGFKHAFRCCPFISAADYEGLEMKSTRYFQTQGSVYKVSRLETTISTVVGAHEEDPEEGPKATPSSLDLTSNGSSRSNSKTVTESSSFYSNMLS

| SMILES | IC50 (NK1 receptor) | IC50 [1] | Metabolic Stability in Guinea Pig Liver S9, concentration ([2]; Time 1 min) | Metabolic Stability in Guinea Pig Liver S9, concentration ([2]; Time 3 min) | Metabolic Stability in Guinea Pig Liver S9, concentration ([2]; Time 5 min) | Metabolic Stability in Guinea Pig Liver S9, concentration ([2]; Time 10 min) | Metabolic Stability in Guinea Pig Liver S9, concentration ([2]; Time 15 min) | Metabolic Stability in Guinea Pig Liver S9, concentration ([2]; Time 30 min) | Metabolic Stability in Guinea Pig Liver S9, concentration ([2]; Time 60 min) | Metabolic Stability in Human Liver S9, concentration ([3]; Time 1 min) | Metabolic Stability in Human Liver S9, concentration ([3]; Time 3 min) | Metabolic Stability in Human Liver S9, concentration ([3]; Time 5 min) | Metabolic Stability in Human Liver S9, concentration ([3]; Time 10 min) | Metabolic Stability in Human Liver S9, concentration ([3]; Time 15 min) | Metabolic Stability in Human Liver S9, concentration ([3]; Time 30 min) | Metabolic Stability in Human Liver S9, concentration ([3]; Time 60 min) |
| --- | --- | --- | --- | --- | --- | --- | --- | --- | --- | --- | --- | --- | --- | --- | --- | --- |
| COc1cc(C(=O)N2CCC(CCN3CCC(C(N)=O)(c4ccccc4)CC3)(c3ccc(Cl)c(Cl)c3)C2)cc(OC)c1OC.Cl (single isomer, unassigned; (+)) [Compound C, (+)-1-(2-(3-(3,4-dichloro-phenyl)-1-(3,4,5-trimethoxy-benzoyl)-pyrrolidin-3-yl)-ethyl)-4-phenyl-piperidine-4-carboxylic acid amide hydrochloride, reference compound] | 3.04 nM | 8.17 nM | 6.3 µg/mL | 6.0 µg/mL | 5.3 µg/mL | 4.8 µg/mL | 4.0 µg/mL | 3.8 µg/mL | 3.5 µg/mL | 6.2 µg/mL | 5.6 µg/mL | 5.9 µg/mL | 5.2 µg/mL | 4.5 µg/mL | 3.2 µg/mL | 2.5 µg/mL |
| COc1ccc(-n2cnnn2)cc1C(=O)N1CC[C@](CCN2CCC(C(N)=O)(c3ccccc3)CC2)(c2ccc(Cl)c(Cl)c2)C1 [Compound A, (R)-1-(2-methoxy-5-(1H-tetrazol-1-yl)benzoyl)-3-(2-(4-phenyl-4-carboxamidopiperidin-1-yl)ethyl)-3-(3,4-dichlorophenyl)pyrrolidine hydrochloric acid salt] | 2.79 nM | 16.3 nM | 6.1 µg/mL | 6.6 µg/mL | 6.3 µg/mL | 6.1 µg/mL | 6.1 µg/mL | 6.3 µg/mL | 6.9 µg/mL | 6.6 µg/mL | 6.5 µg/mL | 6.6 µg/mL | 6.7 µg/mL | 6.6 µg/mL | 6.8 µg/mL | 6.9 µg/mL |
| COc1ccc(-n2cnnn2)cc1C(=O)N1CC[C@](CCN2CCC(C(N)=O)(c3cccnc3)CC2)(c2ccc(Cl)c(Cl)c2)C1 [Compound B, (R)-1-(2-methoxy-5-(1H-tetrazol-1-yl)benzoyl)-3-(2-(4-(pyrid-3-yl)-4-carboxamidopiperidin-1-yl)ethyl)-3-(3,4-dichlorophenyl)pyrrolidine hydrochloric acid salt] | 3.15 nM | 232 nM | 6.2 µg/mL | 6.4 µg/mL | 6.4 µg/mL | 6.3 µg/mL | 6.3 µg/mL | 6.3 µg/mL | 6.2 µg/mL | 6.4 µg/mL | 6.6 µg/mL | 6.1 µg/mL | 6.1 µg/mL | 5.7 µg/mL | 5.3 µg/mL | 4.4 µg/mL |
